Measured values as given in BindingDB's records for doi:10.1021/jm00213a022 (Sichuan University, 2021).
Peptide text beside a SMILES is read from it. * marks the point of attachment. Cbz = O=C(OCc1ccccc1)*

Legend:
[1] = target: Matrix metalloproteinase-9 (Homo sapiens, UniProt P14780); assay: Inhibition of MMP-9 (unknown origin)
[2] = target: 72 kDa type IV collagenase (Homo sapiens, UniProt P08253); assay: Inhibition of MMP-2 (unknown origin)
[3] = target: T1, Proteasome subunit beta type-1 (Homo sapiens, UniProt P20618); assay: Inhibition of beta 1 proteasome (unknown origin)
T1 sequence (P20618 whole entry): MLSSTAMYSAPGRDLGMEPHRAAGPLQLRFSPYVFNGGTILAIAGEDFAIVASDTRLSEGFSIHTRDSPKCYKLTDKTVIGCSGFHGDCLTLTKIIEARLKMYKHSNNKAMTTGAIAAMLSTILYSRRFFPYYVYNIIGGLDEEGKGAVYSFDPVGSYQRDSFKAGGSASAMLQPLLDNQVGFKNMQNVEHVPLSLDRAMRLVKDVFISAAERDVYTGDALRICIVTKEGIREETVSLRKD

[4] = target: T2, Proteasome subunit beta type-7 (Homo sapiens, UniProt Q99436); assay: Inhibition of beta2 proteasome (unknown origin)
T2 sequence (Q99436 whole entry): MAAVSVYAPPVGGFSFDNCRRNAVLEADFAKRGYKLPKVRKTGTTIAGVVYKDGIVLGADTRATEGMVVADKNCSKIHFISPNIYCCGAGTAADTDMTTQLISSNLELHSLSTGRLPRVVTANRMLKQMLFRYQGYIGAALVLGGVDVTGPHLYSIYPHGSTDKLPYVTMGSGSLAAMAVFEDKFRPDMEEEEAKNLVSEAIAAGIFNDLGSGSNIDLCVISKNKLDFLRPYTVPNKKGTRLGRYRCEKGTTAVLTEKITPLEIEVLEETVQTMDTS

[5] = target: T3, Proteasome subunit beta type-5 (Homo sapiens, UniProt P28074); assay: Inhibition of beta5 proteasome (unknown origin)
T3 sequence (P28074 whole entry): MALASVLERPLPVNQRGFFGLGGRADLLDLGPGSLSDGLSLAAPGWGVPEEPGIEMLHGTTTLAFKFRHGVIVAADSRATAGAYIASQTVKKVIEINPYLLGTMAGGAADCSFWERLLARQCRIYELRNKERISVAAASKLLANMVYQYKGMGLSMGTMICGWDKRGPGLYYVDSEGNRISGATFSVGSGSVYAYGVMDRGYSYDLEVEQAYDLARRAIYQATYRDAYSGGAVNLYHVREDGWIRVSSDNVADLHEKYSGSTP

[6] = target: ATP-dependent Clp protease proteolytic subunit, mitochondrial (Homo sapiens, UniProt Q16740); assay: Agonist activity at human recombinant CLpP (57 to 277 amino acids) expressed in Escherichia coli using fluorogenic peptide AC-WLA-AMC as substrate incubated for 10 mins by fluorescence based assay
Sequence of ATP-dependent Clp protease proteolytic subunit, mitochondrial (Q16740 whole entry, the tested form may be a part): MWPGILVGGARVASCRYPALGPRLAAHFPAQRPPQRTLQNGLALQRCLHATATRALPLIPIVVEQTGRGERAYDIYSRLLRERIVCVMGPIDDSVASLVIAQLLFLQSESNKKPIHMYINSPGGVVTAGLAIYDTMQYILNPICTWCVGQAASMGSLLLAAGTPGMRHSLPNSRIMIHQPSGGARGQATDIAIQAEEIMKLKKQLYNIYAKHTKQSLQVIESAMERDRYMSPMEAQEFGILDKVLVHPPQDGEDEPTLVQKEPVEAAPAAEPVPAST

Procathepsin L [7] = target: T4, Procathepsin L (Homo sapiens, UniProt P07711); assay: Binding affinity to Cathepsin L (unknown origin) assessed as inhibition constant
T4 sequence (P07711 whole entry): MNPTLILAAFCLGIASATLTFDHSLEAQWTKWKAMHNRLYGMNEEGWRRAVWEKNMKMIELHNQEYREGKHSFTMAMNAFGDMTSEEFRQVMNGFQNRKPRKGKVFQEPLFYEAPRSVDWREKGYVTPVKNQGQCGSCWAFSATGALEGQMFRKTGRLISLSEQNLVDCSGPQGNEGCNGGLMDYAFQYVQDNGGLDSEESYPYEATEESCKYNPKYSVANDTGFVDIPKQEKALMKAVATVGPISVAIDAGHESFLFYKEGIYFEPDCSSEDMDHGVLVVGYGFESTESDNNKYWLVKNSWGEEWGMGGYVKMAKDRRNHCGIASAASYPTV

Procathepsin L [8] = target: T4, Procathepsin L; assay: Inhibition of human cathepsin L
Cathepsin K = target: T5, Cathepsin K (Homo sapiens, UniProt P43235); assay: Inhibition of human cathepsin K
T5 sequence (P43235 whole entry): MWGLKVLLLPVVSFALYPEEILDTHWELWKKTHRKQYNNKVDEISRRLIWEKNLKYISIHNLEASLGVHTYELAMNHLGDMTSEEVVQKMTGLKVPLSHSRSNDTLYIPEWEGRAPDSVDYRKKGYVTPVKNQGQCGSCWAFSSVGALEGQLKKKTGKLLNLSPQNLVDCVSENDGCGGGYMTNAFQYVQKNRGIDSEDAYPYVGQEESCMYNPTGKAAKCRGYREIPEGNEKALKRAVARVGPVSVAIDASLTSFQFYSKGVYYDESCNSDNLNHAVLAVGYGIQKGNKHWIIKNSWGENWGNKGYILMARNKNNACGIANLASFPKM

Sequence of Matrix metalloproteinase-9 (P14780 whole entry): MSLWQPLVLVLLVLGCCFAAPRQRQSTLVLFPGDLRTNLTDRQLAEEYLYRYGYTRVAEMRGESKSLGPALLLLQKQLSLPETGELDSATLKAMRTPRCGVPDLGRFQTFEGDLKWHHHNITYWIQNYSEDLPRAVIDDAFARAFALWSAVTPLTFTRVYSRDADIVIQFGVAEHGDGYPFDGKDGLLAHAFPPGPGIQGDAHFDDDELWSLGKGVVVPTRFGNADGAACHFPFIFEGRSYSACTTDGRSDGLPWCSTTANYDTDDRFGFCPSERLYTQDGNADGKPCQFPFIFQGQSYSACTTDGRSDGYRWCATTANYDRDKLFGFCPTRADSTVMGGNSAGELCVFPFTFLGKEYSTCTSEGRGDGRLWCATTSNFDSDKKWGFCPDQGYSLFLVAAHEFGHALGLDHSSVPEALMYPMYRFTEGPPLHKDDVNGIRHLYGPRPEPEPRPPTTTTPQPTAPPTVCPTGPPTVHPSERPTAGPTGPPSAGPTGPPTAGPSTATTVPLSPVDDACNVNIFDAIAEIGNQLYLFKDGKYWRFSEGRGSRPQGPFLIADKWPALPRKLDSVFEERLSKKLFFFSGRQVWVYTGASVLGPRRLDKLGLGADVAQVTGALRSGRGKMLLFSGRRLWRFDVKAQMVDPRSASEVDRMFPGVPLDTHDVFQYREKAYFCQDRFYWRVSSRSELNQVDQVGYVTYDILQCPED
Sequence of 72 kDa type IV collagenase (P08253 whole entry): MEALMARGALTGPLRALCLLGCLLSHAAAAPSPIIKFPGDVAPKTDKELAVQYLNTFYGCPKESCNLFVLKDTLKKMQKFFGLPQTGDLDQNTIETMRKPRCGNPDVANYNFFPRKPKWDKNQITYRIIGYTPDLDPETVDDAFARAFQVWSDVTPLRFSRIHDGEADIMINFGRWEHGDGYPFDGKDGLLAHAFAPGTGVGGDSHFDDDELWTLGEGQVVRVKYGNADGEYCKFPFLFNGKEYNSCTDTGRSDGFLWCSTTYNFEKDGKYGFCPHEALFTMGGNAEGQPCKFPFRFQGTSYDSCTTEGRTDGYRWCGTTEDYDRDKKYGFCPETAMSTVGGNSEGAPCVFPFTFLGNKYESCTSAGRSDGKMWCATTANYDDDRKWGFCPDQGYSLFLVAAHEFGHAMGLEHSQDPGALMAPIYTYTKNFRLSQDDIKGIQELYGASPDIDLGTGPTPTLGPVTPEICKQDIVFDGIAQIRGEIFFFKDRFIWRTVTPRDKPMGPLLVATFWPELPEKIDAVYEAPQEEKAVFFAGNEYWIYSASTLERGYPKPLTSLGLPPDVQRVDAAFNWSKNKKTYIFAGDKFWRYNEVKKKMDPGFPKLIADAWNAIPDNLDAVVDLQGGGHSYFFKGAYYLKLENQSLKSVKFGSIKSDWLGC

COc1ccc(S(=O)(=O)N(Cc2cccnc2)[C@@H](CCF)C(=O)NO)cc1
IC50 [1]: 3 nM
IC50 [2]: 33 nM

O=C1NC2([C@@H](O)[C@@H]3C=CCCC3)C(=O)O[C@H]2[C@H]1CCCl (some centres not stated)
IC50 [3]: 33 nM
IC50 [4]: 8 nM
IC50 [5]: 2.6 nM

CC(C)[C@H](O)C12NC(=O)[C@H](C)[C@@H]1OC2=O (some centres not stated)
IC50 [5]: 47 nM

C#Cc1cccc(CN2CCC3=C(C2)C(=O)N(Cc2ccc(C)cc2)C2=NCCN23)c1
EC50 [6]: 800 nM

N#Cc1cccc(CN2CCC3=C(C2)C(=O)N(Cc2ccc(C(F)(F)F)cc2)C2=NCCN23)c1
EC50 [6]: 120 nM

N#Cc1cccc(CN2CCC3=C(C2)C(=O)N(Cc2ccc(Cl)cc2)C2=NCCN23)c1
EC50 [6]: 120 nM

Cn1c2c(c(=O)n(Cc3ccc(Cl)cc3)c1=O)CN(Cc1cccc(C#N)c1)CC2
EC50 [6]: 135 nM

Cc1cccc(CN2CCc3c(c(=O)n(Cc4ccc(C(F)(F)F)cc4)c(=O)n3CCCN)C2)c1
EC50 [6]: 120 nM

COc1ccc(-c2ccc(S(=O)(=O)N(OC(C)C)[C@H](CCC3C(=O)c4ccccc4C3=O)C(=O)NO)cc2)cc1
IC50 [1]: 0.43 nM
IC50 [2]: 0.67 nM

CCc1ccc(C#Cc2ccc(S(=O)(=O)N[C@H](C(=O)O)C(C)C)s2)cc1
IC50 [1]: 4.4 nM
IC50 [2]: 4.8 nM

CCN([C@@H](C(=O)O)C(C)C)S(=O)(=O)c1ccc(-c2nc(-c3ccc(C)s3)no2)cc1
IC50 [1]: 36 nM
IC50 [2]: 3.7 nM

CC(C)C[C@H](NC(=O)OC(C)(C)C)C(=O)N1C[C@H]1C(=O)N1[C@H](C(=O)OCc2ccccc2)[C@@H]1C(=O)OCc1ccccc1
Ki (Procathepsin L [7]): 13 nM

CC(C)C[C@H](NC(=O)CNC(=O)c1cc(Cl)ccc1Cl)B(O)O
IC50 [4]: 3500 nM

O=C(c1ccccc1)c1ccc(S(=O)(=O)CC(CCCc2ccccc2)C(=O)NO)cc1 (configuration not stated) [2-(4-Benzoyl-benzenesulfonylmethyl)-5-phenyl-pentanoic acid hydroxyamide]
IC50 [1]: 5 nM
IC50 [2]: 4 nM

CC(C)N1CCN(C2(c3ccc(Oc4ccc(Br)cc4)cc3)C(=O)NC(=O)NC2=O)CC1 [5-[4-(4-Bromo-phenoxy)-phenyl]-5-(4-isopropyl-piperazin-1-yl)-pyrimidine-2,4,6-trione]
IC50 [1]: 1 nM
IC50 [2]: 26 nM

CC(C)C[C@H](NC(=O)[C@@H](NC(=O)c1cccc(-c2ccccc2)n1)[C@@H](C)O)B(O)O [(R)-1-((2S,3R)-3-hydroxy-2-(6-phenylpicolinamido)butanamido)-3-methylbutylboronic acid]
IC50 [5]: 1.5 nM

N#CN1CC(CNC(=O)C2CCCCC2)C1 [Cyclohexanecarboxylic acid (1-cyano-azetidin-3-ylmethyl)-amide]
IC50 (Procathepsin L [8]): 6 nM
IC50 (Cathepsin K): 5 nM

CC(C)C[C@@H](C=O)NC(=O)[C@H](CC(C)C)NC(=O)[C@H](CC(C)C)NC(=O)OCc1ccccc1 [{1-[(S)-(S)-1-((S)-1-Formyl-3-methyl-butylcarbamoyl)-3-methyl-butylcarbamoyl]-3-methyl-butyl}-carbamic acid benzyl ester] (Cbz-Leu-Leu-Leu-aldehyde)
IC50 [4]: 1080 nM
